According to US20200190062A1, “HETEROCYCLIC COMPOUND AND PHARMACEUTICAL COMPOSITION COMPRISING SAME” (BEYONDBIO INC., priority 2015, published 2020):
Counter-ions that a name gives are not always drawn.

Tests used:
HCT116 = test: Inhibition of cancer cell proliferation (MTT); type: cell-based, human
SH-SY5Y = test: Inhibition of cancer cell proliferation (MTT); type: cell-based, human
In short: (§1)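 72 h MTT proliferation assay; cells seeded at 3000/well (A549, SK-N-SH, SH-SY5Y, NCI-H23) and attached 16 h at 37 °C, then treated at 0.004–10 uM with 0.08% DMSO control. Absorbance at 535 nm read after 2 h MTT; GI50 from viability relative to untreated control.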

SK-N-SH = test: Inhibition of cancer cell proliferation (MTT); type: cell-based, human
In short: as §1

U-87MG = test: Inhibition of cancer cell proliferation (MTT); type: cell-based, human
In short: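 Absorbance at 535 nm of DMSO-dissolved formazan (2 h MTT) gives viability versus 0.08% DMSO-treated cells, and GI50 is derived from eight concentrations between 0.004 and 10 uM. Exposure lasts 72 h at 37 °C, 5% CO2, using 3000 cells/well in 10% FBS medium ([…] for NCI-H23, otherwise DMEM).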

CDK1/cyclinB = target: T1, CDK1/cyclinB (Homo sapiens, UniProt P06493); test: Inhibition of CDK enzyme activity (ADP-Glo kinase assay); type: biochemical; conditions: 10 uM ATP, histone H1 substrate
T1 construct: purchased Merck Millipore
Method: (§2) Test compounds were prepared by dissolving the compounds obtained in the above Examples in dimethylsulfoxide (DMSO) at a concentration of 10 mM. The test compounds were diluted to 200 nM, 50 nM, […], 3.13 nM, 0.78 nM, and 0.2 nM and used in an enzyme reaction.
(§3) CDK enzyme reaction was conducted in a buffer containing 50 mM Tris-HCl (pH 7.5), 10 mM MgCl2, 1 mM EGTA, 1 mM EDTA, and 2 mM DTT. CDK1/cyclinB, CDK2/cylcinE, CDK5/p25, and CDK6/cyclinD3 enzymes commercially available from Merck Millipore were used for CDK1, CDK2, CDK5, and CDK6 enzymes, respectively, and CDK4/cyclinD1 enzyme commercially available from Signalchem (US) was used for CDK4. For CDK1, a reaction proceeded by adding 10 nM CDK1/cyclinB and 0.125 mg/ml histone H1 (Merck Millipore) substrate to the buffer and then adding 10 uM ATP thereto. For CDK2, a reaction was proceeded by adding 10 nM CDK2/cyclinE and 0.125 mg/ml histone H1 substrate to the buffer and then adding 10 uM ATP thereto. For CDK5, a reaction was proceeded by adding 10 nM CDK5/p25 and 0.125 mg/ml histone H1 substrate to the buffer and then adding 10 uM ATP thereto. For CDK4, a reaction was proceeded by adding 20 nM CDK4/cyclinD1 and 0.125 mg/ml Rb protein (Merck Millipore) to the buffer and then adding 10 uM ATP thereto. For CDK6, a reaction was proceeded by adding 50 nM CDK6/cyclinD3 and 0.125 mg/ml histone H1 substrate to the buffer and then adding 10 uM ATP thereto. Each enzyme reaction was incubated at 30° C. for 60 min. Then, the amount of ADP produced was measured using Victor X4 instrument (Perkin Elmer) after generating luminescence using ADP-Glo kinase assay kit (Promega, US). An inhibition effect on each enzyme was represented as a percentage of the luminescence value in the presence of the test compounds relative to the luminescence value without the test compounds. IC50 (nM) is the concentration of the compound to inhibit 50% of the enzyme activity.

CDK2/cyclinE = target: T2, CDK2/cyclinE (Homo sapiens, UniProt P24941); test: as above; type: biochemical; conditions: 10 uM ATP, histone H1 substrate
T2 construct: purchased Merck Millipore
Method: as §2, §3

CDK4/cyclinD1 = target: T3, CDK4/cyclinD1 (Homo sapiens, UniProt P11802); test: as above; type: biochemical; conditions: 10 uM ATP, Rb protein substrate; read-out: IC50 CDK4/cyclinD
T3 construct: purchased Signalchem (US)
Method: as §2, §3

CDK5/p25 = target: T4, CDK5/p25 (Homo sapiens, UniProt Q00535); test: as above; type: biochemical; conditions: 10 uM ATP, histone H1 substrate
T4 construct: purchased Merck Millipore
Method: as §2, §3

CDK6/cyclinD3 = target: T5, CDK6/cyclinD3 (Homo sapiens, UniProt Q00534); test: as above; type: biochemical; conditions: 10 uM ATP, histone H1 substrate; read-out: IC50 CDK6/cyclinD
T5 construct: purchased Merck Millipore
Method: as §2, §3

A549 = test: Inhibition of cancer cell proliferation (MTT); type: cell-based, human
In short: as §1

NCI-H23 = test: Inhibition of cancer cell proliferation (MTT); type: cell-based, human
In short: as §1

T98G = test: Inhibition of cancer cell proliferation (MTT); type: cell-based, human
In short: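 Plate 3000 cells/well and let them adhere for 16 h. Add compound (0.004, 0.013, 0.04, 0.12, 0.37, 1.1, 3.3, 10 uM; 0.08% DMSO) and culture for 72 h. Add MTT for 2 h, dissolve formazan in DMSO, read at 535 nm, and fit GI50.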

Tau protein = test: Inhibition of Tau phosphorylation (Western blot, pSer202) in SH-SY5Y cells; type: cell-based; conditions: 4 hrs
Method: SH-SY5Y cells expressing Tau protein were cultured in DMEM containing 10% FBS. 2.5×10^6 cells were placed in a 6-well plate and incubated at 5% CO2 and 37° C. for 16 hrs. The compounds obtained in the above Examples serially diluted ⅓ from 3 uM to 0.5 nM or the compounds in a concentration of 0.3, 0.1, 0.03, 0.01, 0.003 uM were treated for 4 hrs in DMEM containing 5% FBS. After 4 hrs, the culture solution was removed, washed with PBS, and cells were lysed by adding 100 ul of lysis buffer. The lysis buffer consisted of 50 mM Tris-HCl (pH 7.5), 150 mM NaCl, 5 mM EDT, 1 mM EGTA, 50 mM NaF, 1 mM PMSF, 1 mM Na3VO4, 2.5 mM DTT, 1% Triton X-100, and Protease inhibitor (Pierce). The lysed cells were centrifuged at 10,000 rpm and 4° C. for 10 min and the proteins in the supernatant were quantified. 25 ug of the proteins were electrophoresed on a SDS-PAGE gel and transferred to PVDF (Amersharm) membrane. The PVDF membrane was immersed in T-PBS containing 10% skim milk and shaken for 1 hr at room temperature. The primary antibody, Phosph-Tau[pSer202] (Abcam), diluted 1:1500 in T-PBS solution containing 5% skim milk was reacted with the membrane at room temperature for 2 hrs. The membrane was washed with T-PBS. The secondary antibody, Anti-rabbit IgG HRP, diluted 1:5000 was added to the membrane, reacted at room temperature for 1 hr, and washed.

T5 sequence (Q00534 whole entry): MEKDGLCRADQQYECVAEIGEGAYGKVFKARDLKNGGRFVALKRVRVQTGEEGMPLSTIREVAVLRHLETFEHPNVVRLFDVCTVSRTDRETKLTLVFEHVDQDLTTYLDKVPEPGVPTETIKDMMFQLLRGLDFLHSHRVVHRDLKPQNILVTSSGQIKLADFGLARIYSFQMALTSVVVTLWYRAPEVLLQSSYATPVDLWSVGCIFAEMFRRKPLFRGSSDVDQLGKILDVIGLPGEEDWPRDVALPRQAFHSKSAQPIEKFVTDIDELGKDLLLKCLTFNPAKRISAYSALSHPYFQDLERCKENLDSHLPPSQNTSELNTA
T5 sequence (P30281 whole entry partner): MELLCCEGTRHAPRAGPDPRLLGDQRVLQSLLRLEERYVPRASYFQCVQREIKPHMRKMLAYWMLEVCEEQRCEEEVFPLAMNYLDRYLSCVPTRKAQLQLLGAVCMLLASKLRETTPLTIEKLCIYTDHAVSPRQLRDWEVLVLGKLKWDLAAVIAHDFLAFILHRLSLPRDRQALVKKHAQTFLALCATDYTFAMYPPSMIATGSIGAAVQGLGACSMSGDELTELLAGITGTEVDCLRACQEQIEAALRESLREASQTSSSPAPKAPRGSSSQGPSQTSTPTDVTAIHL
T4 sequence (Q00535 whole entry): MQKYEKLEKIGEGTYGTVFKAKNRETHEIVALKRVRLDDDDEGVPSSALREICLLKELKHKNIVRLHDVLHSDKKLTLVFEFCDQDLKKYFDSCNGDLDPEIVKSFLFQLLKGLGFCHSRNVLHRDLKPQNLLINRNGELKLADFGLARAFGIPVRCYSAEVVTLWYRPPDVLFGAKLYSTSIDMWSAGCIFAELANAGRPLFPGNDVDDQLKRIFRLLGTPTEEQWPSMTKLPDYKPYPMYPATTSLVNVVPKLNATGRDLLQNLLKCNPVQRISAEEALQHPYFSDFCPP
T4 sequence (Q15078 99-307 partner limits assumed): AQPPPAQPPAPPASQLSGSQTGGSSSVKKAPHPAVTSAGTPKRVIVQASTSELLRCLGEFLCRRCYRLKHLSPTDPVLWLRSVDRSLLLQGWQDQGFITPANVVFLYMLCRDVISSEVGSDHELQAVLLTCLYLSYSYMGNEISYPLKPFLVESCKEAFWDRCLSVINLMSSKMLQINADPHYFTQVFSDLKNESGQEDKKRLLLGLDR
T3 sequence (P11802 whole entry): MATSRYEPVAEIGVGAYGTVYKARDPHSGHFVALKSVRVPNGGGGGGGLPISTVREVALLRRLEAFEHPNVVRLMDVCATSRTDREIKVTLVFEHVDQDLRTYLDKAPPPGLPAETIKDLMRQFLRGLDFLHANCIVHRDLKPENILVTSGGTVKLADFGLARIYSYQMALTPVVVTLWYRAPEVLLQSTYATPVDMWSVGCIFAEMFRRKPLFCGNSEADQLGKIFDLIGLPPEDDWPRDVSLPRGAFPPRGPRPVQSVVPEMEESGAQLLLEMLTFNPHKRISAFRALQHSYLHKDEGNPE
T3 sequence (P24385 whole entry partner): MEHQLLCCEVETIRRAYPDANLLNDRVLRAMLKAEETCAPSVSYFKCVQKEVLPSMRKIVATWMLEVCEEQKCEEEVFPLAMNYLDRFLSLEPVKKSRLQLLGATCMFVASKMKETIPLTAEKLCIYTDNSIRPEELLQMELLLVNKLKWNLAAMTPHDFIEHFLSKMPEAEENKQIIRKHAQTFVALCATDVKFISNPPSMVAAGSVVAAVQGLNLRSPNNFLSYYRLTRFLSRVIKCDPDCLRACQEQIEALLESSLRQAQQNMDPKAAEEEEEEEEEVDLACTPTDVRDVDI
T1 sequence (P06493 whole entry): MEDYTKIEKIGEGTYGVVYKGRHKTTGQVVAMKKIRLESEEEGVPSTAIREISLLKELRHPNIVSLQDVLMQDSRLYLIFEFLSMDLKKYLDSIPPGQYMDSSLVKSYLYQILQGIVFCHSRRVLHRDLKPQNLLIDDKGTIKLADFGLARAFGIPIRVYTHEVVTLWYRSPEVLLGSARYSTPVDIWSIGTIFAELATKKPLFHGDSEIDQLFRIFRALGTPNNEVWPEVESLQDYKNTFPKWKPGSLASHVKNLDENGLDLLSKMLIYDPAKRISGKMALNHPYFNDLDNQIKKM
T1 sequence (P14635 whole entry partner): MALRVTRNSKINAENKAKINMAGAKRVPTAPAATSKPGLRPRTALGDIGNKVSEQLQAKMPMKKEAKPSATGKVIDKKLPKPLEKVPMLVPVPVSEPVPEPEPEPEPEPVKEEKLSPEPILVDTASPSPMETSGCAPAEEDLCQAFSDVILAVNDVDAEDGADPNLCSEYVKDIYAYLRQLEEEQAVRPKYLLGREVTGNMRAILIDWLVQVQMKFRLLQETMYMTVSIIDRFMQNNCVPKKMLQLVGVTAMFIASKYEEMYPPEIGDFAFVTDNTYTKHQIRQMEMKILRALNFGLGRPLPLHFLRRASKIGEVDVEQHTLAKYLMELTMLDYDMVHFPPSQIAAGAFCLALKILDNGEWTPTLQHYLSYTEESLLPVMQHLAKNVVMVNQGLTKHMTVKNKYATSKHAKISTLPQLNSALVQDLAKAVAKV

Row | Structure (SMILES) | GI50 (HCT116; 72 hrs) | GI50 (U-87MG; 72 hrs) | GI50 (HCT116; Homo sapiens, HCT-116, 72 h) | GI50 (SH-SY5Y; Homo sapiens, SH-SY5Y, 72 h) | GI50 (SK-N-SH; Homo sapiens, SK-N-SH, 72 h) | GI50 (U-87MG; Homo sapiens, U-87 MG, 72 h) | IC50 (CDK1/cyclinB) | IC50 (CDK2/cyclinE) | IC50 (CDK4/cyclinD1) | IC50 (CDK5/p25) | IC50 (CDK6/cyclinD3) | other results
1 | CC(C)c1cnc(N)nc1-c1nc(-c2ccnc(N)c2F)ccc1O [Example 104] | 30 nM | 70 nM |  |  |  |  | 1.3 nM | 1.6 nM | 15.2 nM | 0.8 nM | 54.1 nM | GI50 (A549; 72 hrs): 80 nM; GI50 (NCI-H23; 72 hrs): 80 nM; GI50 (T98G; 72 hrs): 50 nM
2 | Nc1nccc(-c2nc(-c3ccc(O)c(F)c3F)ccc2O)n1 [Example 20, 2-(2-aminopyrimidin-4-yl)-6-(2,3-difluoro-4-hydroxyphenyl)pyridin-3-ol] |  |  | 520 nM | 190 nM | 390 nM | 1180 nM |  |  |  |  |  | GI50 (T98G; Homo sapiens, T98G, 72 h): 4310 nM
3 | Nc1nccc(-c2nc(-c3cccc(O)c3)ccc2O)n1 [Example 13, 2-(2-aminopyrimidin-4-yl)-6-(3-hydroxyphenyl)pyridin-3-ol] |  |  | 6970 nM | 680 nM | 7220 nM | 4600 nM |  |  |  |  |  | 
4 | Nc1nc(-c2nc(-c3ccnc(N)c3F)ccc2O)cc(N2CCOCC2)n1 [Example 51, 2′-amino-6-(2-amino-6-morpholinopyrimidin-4-yl)-3′-fluoro-[2,4′-bipyridin]-5-ol] |  |  | 3 nM |  |  | 10 nM | 1 nM | 4.5 nM | 81.3 nM | 2.8 nM | 35.8 nM | GI50 (A549; Homo sapiens, A549, 72 h): 10 nM; GI50 (NCI-H23; Homo sapiens, NCI-H23, 72 h): 10 nM; GI50 (T98G; Homo sapiens, T98G, 72 h): 10 nM
5 | CN1CCC(c2cc(-c3nc(-c4ccnc(N)c4F)ccc3O)nc(N)n2)CC1 [Example 34, 2′-amino-6-(2-amino-6-(1-methylpiperidin-4-yl)pyrimidin-4-yl)-3′-fluoro-[2,4′-bipyridin]-5-ol] | 20 nM | 30 nM |  |  |  |  | 2.1 nM | 2.2 nM | 31.5 nM | 2.2 nM | 176 nM | GI50 (A549; 72 hrs): 40 nM; GI50 (NCI-H23; 72 hrs): 70 nM; GI50 (T98G; 72 hrs): 150 nM; Phosphorylation (%) of Tau (Tau protein; 0.003 uM): 103%; Phosphorylation (%) of Tau (Tau protein; 0.01 uM): 27%; Phosphorylation (%) of Tau (Tau protein; 0.03 uM): 13%; Phosphorylation (%) of Tau (Tau protein; 0.1 uM): 21%; Phosphorylation (%) of Tau (Tau protein; 0.3 uM): 21%
6 | Nc1nc(-c2nc(-c3ccnc(N)c3F)ccc2O)cc(C2CCNCC2)n1 [Example 33, 2′-amino-6-(2-amino-6-(piperidin-4-yl)pyrimidin-4-yl)-3′-fluoro-[2,4′-bipyridin]-5-ol] |  |  | 50 nM |  |  | 150 nM | 17.1 nM | 3.7 nM | 39.3 nM | 9.89 nM | 240 nM | GI50 (A549; Homo sapiens, A549, 72 h): 190 nM; GI50 (NCI-H23; Homo sapiens, NCI-H23, 72 h): 1710 nM; GI50 (T98G; Homo sapiens, T98G, 72 h): 260 nM

Further lines, with some results ahead:

Row | GI50 (HCT116; 72 hrs) | GI50 (U-87MG; 72 hrs) | GI50 (HCT116; Homo sapiens, HCT-116, 72 h) | GI50 (SH-SY5Y; Homo sapiens, SH-SY5Y, 72 h) | GI50 (SK-N-SH; Homo sapiens, SK-N-SH, 72 h) | GI50 (U-87MG; Homo sapiens, U-87 MG, 72 h) | IC50 (CDK1/cyclinB) | IC50 (CDK2/cyclinE) | IC50 (CDK4/cyclinD1) | IC50 (CDK5/p25) | IC50 (CDK6/cyclinD3) | Structure (SMILES) | other results
7 | 80 nM | 90 nM |  |  |  |  |  |  |  |  |  | Nc1nccc(-c2nc(-c3ccnc(N)c3F)ccc2O)n1 [Example 69, 2′-amino-6-(2-aminopyrimidin-4-yl)-3′-fluoro-[2,4′-bipyridin]-5-ol 2malonate] | GI50 (SH-SY5Y; 72 hrs): 4 nM; GI50 (SK-N-SH; 72 hrs): 20 nM
8 |  |  | 1330 nM | 570 nM | 2910 nM | 3600 nM |  |  |  |  |  | Nc1cccc(-c2ccc(O)c(-c3ccnc(N)n3)n2)c1 [Example 16, 6-(3-aminophenyl)-2-(2-aminopyrimidin-4-yl)pyridin-3-ol] | 
9 | 10 nM | 100 nM |  |  |  |  |  |  |  |  |  | Nc1nccc(-c2nc(-c3ccnc(N)c3F)ccc2O)n1 [Example 68, 2′-amino-6-(2-aminopyrimidin-4-yl)-3′-fluoro-[2,4′-bipyridin]-5-oloxalate] | GI50 (SH-SY5Y; 72 hrs): 10 nM; GI50 (SK-N-SH; 72 hrs): 30 nM
10 | 530 nM | 1650 nM |  |  |  |  |  |  |  |  |  | Nc1nccc(-c2nc(-c3ccc(O)cc3F)ccc2O)n1 [Example 70, 2-(2-aminopyrimidin-4-yl)-6-(2-fluoro-4-hydroxyphenyl)pyridin-3-ol 2hydrochloride] | GI50 (SH-SY5Y; 72 hrs): 160 nM; GI50 (SK-N-SH; 72 hrs): 580 nM
11 |  |  | 1150 nM | 880 nM | 1430 nM | 2640 nM |  |  |  |  |  | Nc1nccc(-c2cc(-c3ccnc(N)n3)c(O)cn2)n1 [Example 3, 4,6-bis(2-aminopyrimidin-4-yl)pyridin-3-ol] | 
12 |  |  | 590 nM | 540 nM | 1040 nM | 3410 nM |  |  |  |  |  | Nc1nccc(-c2nc(-c3ccncc3F)ccc2O)n1 [Example 14, 6-(2-aminopyrimidin-4-yl)-3′-fluoro-[2,4′-bipyridin]-5-ol] | 
